Key:
dopamine receptors [1] = test: Receptor Binding Assay, displacement of ^3 H-Spiroperidol binding to calf caudate membranes; conditions: read-out: ^3 H-Spiroperidol (IC50); 0.15 nM ^3 H-Spiroperidol, calf caudate membrane homogenate, 37° C., 20 minutes; non-specific binding with 10^-5 M (+)-Butaclamol
dopamine receptors [2] = test: Receptor Binding Assay, displacement of ^3 H-dopamine binding to calf caudate membranes; conditions: for IC50: read-out: ^3 H-Dopamine (IC50), calf caudate membrane homogenate, 37° C., 10 minutes, non-specific binding with 10^-5 M (+)-Butaclamol
dopamine receptors [3] = biological target: dopamine receptors (Bos taurus, UniProt P20288); test: biochemical; type: binding; conditions: 1.6 nM ^3 H-haloperidol, calf caudate membrane homogenate, 37° C., 10 minutes; non-specific binding with 10^-4 M dopamine
dopamine receptors [4] = test: biochemical; type: binding; conditions: ^3 H-Haloperidol and ^3 H-Spiroperidol versus ^3 H-dopamine sites; compared with clozapine and chloropromazine

Sequence of dopamine receptors (Bos taurus, UniProt P20288) (P20288 whole entry): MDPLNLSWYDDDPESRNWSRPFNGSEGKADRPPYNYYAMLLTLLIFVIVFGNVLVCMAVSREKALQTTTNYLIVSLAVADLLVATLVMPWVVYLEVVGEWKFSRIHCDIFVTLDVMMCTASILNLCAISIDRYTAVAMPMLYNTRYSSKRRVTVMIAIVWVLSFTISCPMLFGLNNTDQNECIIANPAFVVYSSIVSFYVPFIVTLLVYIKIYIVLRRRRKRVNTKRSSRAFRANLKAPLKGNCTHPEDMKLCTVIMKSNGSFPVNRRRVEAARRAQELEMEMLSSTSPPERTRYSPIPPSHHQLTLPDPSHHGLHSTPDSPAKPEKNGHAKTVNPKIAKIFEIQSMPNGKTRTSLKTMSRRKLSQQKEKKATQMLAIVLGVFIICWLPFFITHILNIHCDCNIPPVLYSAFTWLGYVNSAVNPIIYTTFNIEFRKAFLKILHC

Compound | IC50 (dopamine receptors [1]) [nM] | IC50 (dopamine receptors [2]) [nM] | IC50 (dopamine receptors [3]) [nM] | antagonist ratios (dopamine receptors [4]) | ^3 H-Dopamine, % at 10^-4 (dopamine receptors [2]; at 10^-4, calf caudate membrane homogenate, 37° C., 10 minutes, 100 µM) [%]
CC(C)(C)C1(O)CCN(CC2c3ccccc3Sc3ccccc32)CC1.Cl [Compound G, 4-tert-butyl-1-(thioxanthen-9-ylmethyl)-4-piperidinol, hydrochloride] | 910 | 4500 | 290 | comparable to clozapine and chloropromazine | 
CC(C)(C)C1(O)CCN(CC2c3ccccc3CCc3ccccc32)CC1 [Compound A] | 860 | 15000 | 2.4 | comparable to clozapine and chloropromazine | 
CC(C)(C)C1(O)CCN(CC2c3ccccc3CCc3ccc(Br)cc32)CC1.Cl (stereo not shown) [Compound C, 4-tert-butyl-1-[(3-bromo-10,11-dihydro-5H-dibenzo[a,d]cyclohepten-5-yl)methyl]-4-piperidinol hydrochloride] | 220 | 1700 | 280 | comparable to clozapine and chloropromazine | 
OC1CCN(CC(c2ccccc2)c2ccccc2)CC1C1(O)CCN(CC(c2ccccc2)c2ccccc2)CC1 (stereo not shown) [Compound J, 1-(2,2-diphenylethyl)-3-[1-(2,2-phenylethyl)-4-hydroxypiperidin-4-yl]-4-piperidinol] |  | 25000 | 90 | comparable to clozapine and chloropromazine | 
Cl.Cl.NC1CCN(CC2c3ccccc3CCc3ccccc32)CC1 [Compound E, 1-[(10,11-dihydro-5H-dibenzo[a,d]cyclohepten-5-yl)methyl]-4-piperidinamine, dihydrochloride] | 30000 |  | 2500 | comparable to clozapine and chloropromazine | 27
CC(C)(C)C1(O)CCN(CC(c2ccccc2)c2ccccc2)CC1 [Compound H, 4-tert-butyl-1-(2,2-diphenylethyl)-4-piperidinol] | 3600 | 60000 | 160 | comparable to clozapine and chloropromazine | 
O=C1CCN(CC(c2ccc(Cl)cc2)c2ccc(Cl)cc2)CC1C1(O)CCN(CC(c2ccc(Cl)cc2)c2ccc(Cl)cc2)CC1 (stereo not shown) [Compound K, 1-[2,2-bis(p-chlorophenyl)ethyl]-3-{1-[2,2-bis(p-chlorophenyl)ethyl]-4-hydroxypiperidin-4-yl}-4-piperidinone] |  |  | 10000 | comparable to clozapine and chloropromazine | 
CC(C)(C)C1(O)CCN(CC2c3ccccc3Oc3ccccc32)CC1.Cl [Compound F, 4-tert-butyl-1-(xanthen-9-ylmethyl)-4-piperidinol, hydrochloride] | 5900 | 15000 | 310 | comparable to clozapine and chloropromazine | 
CC(C)(C)C1(O)CCN(CC2c3ccccc3CCc3cc(Cl)ccc32)CC1 (stereo not shown) [Compound B] | 270 | 880 | 7.5 | comparable to clozapine and chloropromazine | 
CC(C)(C)C1(O)CCN(CC2c3ccccc3C=Cc3ccccc32)CC1.Cl [Compound D, 4-tert-butyl-1-[(5H-dibenzo[a,d]cyclohepten-5yl)methyl]-4-piperidinol, hydrochloride] | 1500 | 7200 | 37 | comparable to clozapine and chloropromazine | 
O=C1CCN(CC(c2ccccc2)c2ccccc2)CC1C1(O)CCN(CC(c2ccccc2)c2ccccc2)CC1 (stereo not shown) [Compound I, 1-(2,2-diphenylethyl)-3-[1-(2,2-diphenylethyl)-4-hydroxypiperidin-4-yl]-4-piperidinone] |  | 27000 | 500 | comparable to clozapine and chloropromazine | 

Source: patent US4188485A, “1-[(10,11-Dihydro-5H-dibenzo[a,d]-cyclohepten-5-yl)methyl]-4-substituted piperidines and related compounds” (G. D. Searle & Co., priority 1978, dated 1980)
